Where a name gives a salt, the structure may show the parent alone.
What follows are compounds tested against T1, URAT-1 transporter (Homo sapiens, UniProt Q96S37) (assay: URAT-1 inhibitor activity: [14C]-uric acid uptake into CHO-URAT1(L)GFP#8 (CHO#8) cells, scintillation proximity).
T1 construct: expressed in transfected cells
Type: cell-based
From the text: The nucleotide sequence for the long isoform of URAT1 (NM_144585) was C-terminally fused to that of enhanced green fluorescent protein (eGFP) (hereinafter referred to as URAT1(L)GFP). The combined sequence was codon-optimised and custom synthesized. The synthesized sequence was generated in pDONR221 Gateway entry vector (Invitrogen Life Technologies) prior to cloning in pLenti6.3/V5 Gateway destination vector (Invitrogen Life Technologies).
Lentiviral particles were generated according to ViraPower HiPerform expression system procedure (Invitrogen Life Technologies) and used to transduce CHO cells. Blasticidin selection enabled the generation of a stable clonal pool of cells, confirmed by expression of GFP and V5 epitope. The clonal pools were sorted using fluorescence-activated cell sorting (FACS) on the basis of GFP expression with the gating set at the top 50% of expression into single cells which were subsequently expanded to generate clonal lines. […] This cell line was used for all screening activities and is referred to as CHO-URAT1(L)GFP#8 or CHO#8.
The potency of the compounds of formula (I) as inhibitors of the URAT-1 transporter was determined as follows.
CHO#8 cells were cultured in cell line maintenance flasks in medium consisting of Dulbecco's modified Eagle medium (DMEM) with high glucose and sodium pyruvate (4.5 g of glucose per litre, Invitrogen Life Technologies), supplemented with heat-inactivated foetal bovine serum (FBC, 10% v/v), 1×NEAA (non-essential amino acids) and blasticidin (10 μg/ml). Cultures were grown in 175 cm^2 tissue culture flasks in a humidified incubator at approximately 37° C. in approximately 95% air/5% CO2. Near confluent CHO#8 cell cultures were harvested by trypsinisation, re-suspended in culture medium and the process was repeated once or twice weekly to provide sufficient cells for use.
Assay ready flasks were generated by the same method, except the cells were not cultured in blasticidin.
Assay ready frozen cells were generated by freezing 40,000,000 cells in 1 ml of FBS (without blasticidin) containing 10% DMSO per vial. One vial was sufficient for 5 assay plates. Each vial was thawed rapidly to 37° C., washed and re-suspended in pre-warmed culture medium for seeding onto assay plates.
CHO#8 cells were seeded onto Cytostar™ 96-well plates at a density of […]. The cells were cultured for 1 day at approximately 37° C. in a humidified incubator containing approximately 5% CO2 in air. After approximately 24 hours culture, cells were used for uptake experiments.
On the day of assay, culture medium was removed from the wells and the cells were washed once with 50 μL of chloride-containing buffer (136.7 mM NaCl, 5.36 mM KCl, 0.952 mM CaCl2, 0.441 mM KH2PO4, 0.812 mM MgSO4, 5.6 mM D-glucose, 0.383 mM Na2HPO4.2H2O, 10 mM HEPES, pH 7.4 with NaOH). The cells were pre-incubated with another 50 μL of chloride-containing buffer for one hour at approximately 37° C. in a humidified incubator containing approximately 5% CO2 in air.
Assay compound plates were prepared by diluting the compounds of formula (I) with chloride-free buffer (125 mM Na-gluconate, 4.8 mM K-gluconate, 1.3 mM Ca-gluconate, 1.2 mM KH2PO4, 1.2 mM MgSO4, 5.6 mM D-glucose, 25 mM HEPES, pH 7.4 with NaOH) in 100% DMSO to a final concentration of 1% DMSO. [^14C]-Uric Uric acid working stock was made by addition of radiolabeled compound to a final concentration of 120 nM in chloride-free buffer. In all wells, the final assay concentration of solvent (DMSO) was 0.25%; the final assay concentration of [^14C]-uric acid was 30 nM in chloride-free buffer and the final compound of formula (I) concentrations ranged from 0 to 10 μM.
After pre-incubation, cells were washed with 50 μL of chloride-free buffer and another 50 μL of chloride-free buffer was added. […]

T1 sequence (Q96S37 with tags, fused parts or gaps): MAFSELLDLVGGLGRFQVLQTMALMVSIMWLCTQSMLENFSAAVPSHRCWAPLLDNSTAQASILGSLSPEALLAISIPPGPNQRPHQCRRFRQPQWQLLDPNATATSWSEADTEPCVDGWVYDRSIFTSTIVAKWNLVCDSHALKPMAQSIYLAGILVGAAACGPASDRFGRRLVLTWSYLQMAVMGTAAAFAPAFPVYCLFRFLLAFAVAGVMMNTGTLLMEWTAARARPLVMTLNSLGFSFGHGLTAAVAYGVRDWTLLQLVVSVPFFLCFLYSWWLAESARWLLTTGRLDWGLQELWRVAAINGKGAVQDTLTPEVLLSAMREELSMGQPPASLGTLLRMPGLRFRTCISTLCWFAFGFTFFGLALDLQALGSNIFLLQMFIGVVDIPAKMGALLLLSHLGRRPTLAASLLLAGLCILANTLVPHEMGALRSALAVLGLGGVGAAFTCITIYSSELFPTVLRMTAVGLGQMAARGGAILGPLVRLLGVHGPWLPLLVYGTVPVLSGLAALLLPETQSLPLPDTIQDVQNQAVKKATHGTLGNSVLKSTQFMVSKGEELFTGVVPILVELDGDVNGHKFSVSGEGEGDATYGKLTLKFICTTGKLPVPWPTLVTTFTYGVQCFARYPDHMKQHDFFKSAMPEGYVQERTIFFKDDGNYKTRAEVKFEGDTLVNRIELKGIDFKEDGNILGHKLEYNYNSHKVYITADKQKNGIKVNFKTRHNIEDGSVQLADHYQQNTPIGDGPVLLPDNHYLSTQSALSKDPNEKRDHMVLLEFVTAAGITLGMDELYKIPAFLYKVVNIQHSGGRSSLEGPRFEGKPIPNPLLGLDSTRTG

IC50	SMILES
1490 nM	O=S(=O)(Nc1ncns1)c1ccc(Oc2cccc(C(F)(F)F)c2F)c(Cl)c1 [Example 65, 3-chloro-4-[2-fluoro-3-(trifluoromethyl)phenoxy]-N-(1,2,4-thiadiazol-5-yl)benzenesulfonamide diethylamine salt]
> 6340 nM	CC(C)c1cccc(Oc2ccc(S(=O)(=O)Nc3ncc(F)s3)cc2F)c1 [Example 69, 3-fluoro-N-(5-fluoro-1,3-thiazol-2-yl)-4-[3-(propan-2-yl)phenoxy]benzenesulfonamide]
> 10000 nM	O=S(=O)(Nc1nccs1)c1ccc(Oc2ccc(Cl)cc2OC(F)(F)F)c(F)c1 [Example 70, 4-[4-chloro-2-(trifluoromethoxy)phenoxy]-3-fluoro-N-(1,3-thiazol-2-yl)benzenesulfonamide]
> 10000 nM	O=S(=O)(Nc1nccs1)c1ccc(Oc2ccc(Cl)cc2C(F)(F)F)c(F)c1 [Example 71, 4-[4-chloro-2-(trifluoromethyl)phenoxy]-3-fluoro-N-(1,3-thiazol-2-yl)benzenesulfonamide]
> 3440 nM	Cc1cc(Oc2ccc(S(=O)(=O)Nc3nccs3)cc2F)ccc1F [Example 74, 3-fluoro-4-(4-fluoro-3-methylphenoxy)-N-(1,3-thiazol-2-yl)benzenesulfonamide]
93 nM	Cc1nocc1NS(=O)(=O)c1ccc(Oc2ccc(C#N)c(Cl)c2)c(C#N)c1 [Example 76, 4-(3-chloro-4-cyanophenoxy)-3-cyano-N-(3-methyl-1,2-oxazol-4-yl)benzenesulfonamide]
681 nM	N#Cc1cc(S(=O)(=O)Nc2ncc(Cl)s2)ccc1Oc1ccccc1F [Example 84, N-(5-chloro-1,3-thiazol-2-yl)-3-cyano-4-(2-fluorophenoxy)benzenesulfonamide]
845 nM	N#Cc1cc(S(=O)(=O)Nc2ncc(Cl)s2)ccc1Oc1ccccc1Cl [Example 85, 4-(2-chlorophenoxy)-N-(5-chloro-1,3-thiazol-2-yl)-3-cyanobenzenesulfonamide]
680 nM	N#Cc1cc(S(=O)(=O)Nc2ncc(Cl)s2)ccc1Oc1cc(Cl)ccc1Cl [Example 86, N-(5-chloro-1,3-thiazol-2-yl)-3-cyano-4-(2,5-dichlorophenoxy)benzenesulfonamide]
415 nM	N#Cc1cc(S(=O)(=O)Nc2ncc(Cl)s2)ccc1Oc1ccc(Cl)cc1F [Example 87, 4-(4-chloro-2-fluorophenoxy)-N-(5-chloro-1,3-thiazol-2-yl)-3-cyanobenzenesulfonamide]
> 6720 nM	N#Cc1cc(S(=O)(=O)Nc2ncc(Cl)s2)ccc1Oc1ccc(C(F)(F)F)cc1 [Example 88, N-(5-chloro-1,3-thiazol-2-yl)-3-cyano-4-[4-(trifluoromethyl)phenoxy]benzenesulfonamide]
2830 nM	N#Cc1cc(S(=O)(=O)Nc2ncc(Cl)s2)ccc1Oc1cccc(C(F)(F)F)c1 [Example 89, N-(5-chloro-1,3-thiazol-2-yl)-3-cyano-4-[3-(trifluoromethyl)phenoxy]benzenesulfonamide]
1670 nM	COc1cc(OC)c(Oc2ccc(S(=O)(=O)Nc3ncc(Cl)s3)cc2C#N)c(OC)c1 [Example 90, N-(5-chloro-1,3-thiazol-2-yl)-3-cyano-4-(2,4,6-trimethoxyphenoxy)benzenesulfonamide]
2630 nM	N#Cc1cc(S(=O)(=O)Nc2ncc(F)s2)ccc1Oc1ccc(Cl)cc1OC(F)(F)F [Example 91, 4-[4-chloro-2-(trifluoromethoxy)phenoxy]-3-cyano-N-(5-fluoro-1,3-thiazol-2-yl)benzenesulfonamide]
> 7860 nM	N#Cc1cc(S(=O)(=O)Nc2ncc(F)s2)ccc1Oc1ccc(Cl)cc1C(F)(F)F [Example 92, 4-[4-chloro-2-(trifluoromethyl)phenoxy]-3-cyano-N-(5-fluoro-1,3-thiazol-2-yl)benzenesulfonamide]
> 1610 nM	Cc1cc(F)ccc1Oc1ccc(S(=O)(=O)Nc2ncc(F)s2)cc1C#N [Example 93, 3-cyano-4-(4-fluoro-2-methylphenoxy)-N-(5-fluoro-1,3-thiazol-2-yl)benzenesulfonamide]

Second part, the compound before the results:

SMILES	IC50
CC(C)c1cccc(Oc2ccc(S(=O)(=O)Nc3ncns3)cc2Cl)c1 [Example 63, 3-chloro-4-[3-(propan-2-yl)phenoxy]-N-(1,2,4-thiadiazol-5-yl)benzenesulfonamide diethylamine salt]	1440 nM
N#Cc1ccc(Oc2ccc(S(=O)(=O)Nc3ncns3)cc2Cl)cc1 [Example 64, 3-chloro-4-(4-cyanophenoxy)-N-(1,2,4-thiadiazol-5-yl)benzenesulfonamide diethylamine salt]	8010 nM
CC(C)c1cccc(Oc2ccc(S(=O)(=O)Nc3nccs3)cc2F)c1 [Example 66, 3-fluoro-4-[3-(propan-2-yl)phenoxy]-N-(1,3-thiazol-2-yl)benzenesulfonamide]	5810 nM
CC(C)c1cccc(Oc2cc(F)c(S(=O)(=O)Nc3nccs3)cc2F)c1 [Example 67, 2,5-difluoro-4-[3-(propan-2-yl)phenoxy]-N-(1,3-thiazol-2-yl)benzenesulfonamide]	> 7580 nM
CC(C)c1cccc(Oc2cc(F)c(S(=O)(=O)Nc3ncc(F)s3)cc2F)c1 [Example 68, 2,5-difluoro-N-(5-fluoro-1,3-thiazol-2-yl)-4-[3-(propan-2-yl)phenoxy]benzenesulfonamide]	> 8470 nM
CCc1cc(F)ccc1Oc1ccc(S(=O)(=O)Nc2nccs2)c(F)c1 [Example 72, 4-(2-ethyl-4-fluorophenoxy)-2-fluoro-N-(1,3-thiazol-2-yl)benzenesulfonamide]	> 10000 nM
CC(C)c1cccc(Oc2ccc(S(=O)(=O)Nc3nccs3)c(F)c2)c1 [Example 73, 2-fluoro-4-[3-(propan-2-yl)phenoxy]-N-(1,3-thiazol-2-yl)benzenesulfonamide]	> 10000 nM
O=S(=O)(Nc1nccs1)c1ccc(Oc2ccccc2Br)c(F)c1 [Example 75, 4-(2-bromophenoxy)-3-fluoro-N-(1,3-thiazol-2-yl)benzenesulfonamide]	> 10000 nM
CCc1cc(F)ccc1Oc1ccc(S(=O)(=O)Nc2cscn2)cc1I [Example 77, 4-(2-ethyl-4-fluorophenoxy)-3-iodo-N-(1,3-thiazol-4-yl)benzenesulfonamide]	160 nM
CCc1cc(F)ccc1Oc1cc(F)c(S(=O)(=O)Nc2cscn2)cc1Br [Example 78, 5-bromo-4-(2-ethyl-4-fluorophenoxy)-2-fluoro-N-(1,3-thiazol-4-yl)benzenesulfonamide]	165 nM
COc1cc(Cl)ccc1Oc1ccc(S(=O)(=O)Nc2cscn2)c(OC)c1 [Example 79, 4-(4-chloro-2-methoxyphenoxy)-2-methoxy-N-(1,3-thiazol-4-yl)benzenesulfonamide diethylamine salt]	> 10000 nM
COc1cc(Cl)ccc1Oc1ccc(S(=O)(=O)Nc2nncs2)c(OC)c1 [Example 80, 4-(4-chloro-2-methoxyphenoxy)-2-methoxy-N-(1,3,4-thiadiazol-2-yl)benzenesulfonamide]	> 5780 nM
COc1cc(Cl)ccc1Oc1ccc(S(=O)(=O)Nc2cscn2)c(Cl)c1 [Example 81, 2-chloro-4-(4-chloro-2-methoxyphenoxy)-N-(1,3-thiazol-4-yl)benzenesulfonamide diethylamine salt]	3600 nM
COc1cc(Cl)ccc1Oc1ccc(S(=O)(=O)Nc2nncs2)c(Cl)c1 [Example 82, 2-chloro-4-(4-chloro-2-methoxyphenoxy)-N-(1,3,4-thiadiazol-2-yl)benzenesulfonamide diethylamine salt]	340 nM
O=S(=O)(Nc1nccs1)c1ccc(Oc2ncncc2Br)c(F)c1 [Example 83, 4-[(5-bromopyrimidin-4-yl)oxy]-3-fluoro-N-(1,3-thiazol-2-yl)benzenesulfonamide]	1140 nM
